Source: PubChem BioAssay (NCI)
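How tested: cells in 96-well plates exposed to compound for 48 hours at five concentrations. TGI: concentration producing complete growth inhibition.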

Tests used:
Test in all cases: inhibition of tumour cell growth, NCI panel, 48 h
[1] = system: 786-0 renal
[2] = system: A498 renal
[3] = system: A549 NSCLC
[4] = system: ACHN renal
[5] = system: CAKI-1 renal
[6] = system: CCRF-CEM leukemia
[7] = system: COLO 205 colon
[8] = system: DU-145 prostate
[9] = system: EKVX NSCLC
[10] = system: HCC-2998 colon
[11] = system: HCT-116 colon
[12] = system: HCT-15 colon
[13] = system: HL-60(TB) leukemia
[14] = system: HOP-62 NSCLC
[15] = system: HOP-92 NSCLC
[16] = system: HS 578T breast
[17] = system: HT29 colon
[18] = system: IGROV1 ovarian
[19] = system: K-562 leukemia
[20] = system: KM12 colon
[21] = system: LOX IMVI melanoma
[22] = system: M14 melanoma
[23] = system: MALME-3M melanoma
[24] = system: MCF7 breast
[25] = system: MDA-MB-231 breast
[26] = system: MDA-MB-435
[27] = system: MDA-N
[28] = system: MOLT-4 leukemia
[29] = system: NCI-H226 lung
[30] = system: NCI-H23 lung
[31] = system: NCI-H460 lung
[32] = system: NCI-H522 lung
[33] = system: NCI/ADR-RES ovarian
[34] = system: OVCAR-3 ovarian
[35] = system: OVCAR-4 ovarian
[36] = system: OVCAR-5 ovarian
[37] = system: OVCAR-8 ovarian
[38] = system: PC-3 prostate
[39] = system: RPMI-8226 leukemia
[40] = system: RXF 393 renal
[41] = system: SF-268 CNS
[42] = system: SF-295 CNS
[43] = system: SF-539 CNS
[44] = system: SK-MEL-2 melanoma
[45] = system: SK-MEL-28 melanoma
[46] = system: SK-MEL-5 melanoma
[47] = system: SK-OV-3 ovarian
[48] = system: SN12C renal
[49] = system: SNB-19 CNS
[50] = system: SNB-75 CNS
[51] = system: SR leukemia
[52] = system: SW-620 colon
[53] = system: T-47D breast
[54] = system: TK-10 renal
[55] = system: U251 CNS
[56] = system: UACC-257 melanoma
[57] = system: UACC-62 melanoma
[58] = system: BT-549 breast
[59] = system: UO-31 renal

COc1cc(Br)c(CC2C3=C(CCN2C(=O)C2CCC2)CC2(CC3)OCCO2)cc1O (stereo unspecified)
TGI [1]: > 100 µM | TGI [2]: > 100 µM | TGI [3]: > 100 µM | TGI [4]: > 100 µM | TGI [5]: > 100 µM | TGI [6]: > 100 µM | TGI [7]: 34.8 µM | TGI [8]: > 100 µM | TGI [9]: > 100 µM | TGI [10]: > 100 µM | TGI [11]: > 100 µM | TGI [12]: > 100 µM | TGI [13]: > 100 µM | TGI [14]: > 100 µM | TGI [15]: > 100 µM | TGI [16]: > 100 µM | TGI [17]: 60.3 µM | TGI [18]: > 100 µM | TGI [19]: > 100 µM | TGI [20]: > 100 µM | TGI [21]: > 100 µM | TGI [22]: > 100 µM | TGI [23]: > 100 µM | TGI [24]: > 100 µM | TGI [25]: > 100 µM | TGI [26]: 64 µM | TGI [27]: > 100 µM | TGI [28]: > 100 µM | TGI [29]: > 100 µM | TGI [30]: 79.7 µM | TGI [31]: > 100 µM | TGI [32]: 98.4 µM | TGI [33]: > 100 µM | TGI [34]: > 100 µM | TGI [35]: > 100 µM | TGI [36]: > 100 µM | TGI [37]: > 100 µM | TGI [38]: > 100 µM | TGI [39]: > 100 µM | TGI [40]: 44.4 µM | TGI [41]: > 100 µM | TGI [42]: > 100 µM | TGI [43]: > 100 µM | TGI [44]: > 100 µM | TGI [45]: > 100 µM | TGI [46]: > 100 µM | TGI [47]: > 100 µM | TGI [48]: > 100 µM | TGI [49]: > 100 µM | TGI [50]: 76.8 µM | TGI [51]: > 100 µM | TGI [52]: > 100 µM | TGI [53]: > 100 µM | TGI [54]: > 100 µM | TGI [55]: > 100 µM | TGI [56]: > 100 µM | TGI [57]: > 100 µM

O=C1c2ccccc2CC12CCC1(CC2)OCCO1
TGI [1]: > 100 µM | TGI [3]: > 100 µM | TGI [4]: > 100 µM | TGI [58]: > 100 µM | TGI [5]: > 100 µM | TGI [6]: > 100 µM | TGI [7]: > 100 µM | TGI [8]: > 100 µM | TGI [9]: > 100 µM | TGI [10]: > 100 µM | TGI [11]: > 100 µM | TGI [12]: > 100 µM | TGI [13]: > 100 µM | TGI [14]: > 100 µM | TGI [16]: > 100 µM | TGI [17]: > 100 µM | TGI [18]: > 100 µM | TGI [19]: > 100 µM | TGI [20]: > 100 µM | TGI [21]: > 100 µM | TGI [22]: > 100 µM | TGI [23]: > 100 µM | TGI [24]: > 100 µM | TGI [25]: > 100 µM | TGI [27]: > 100 µM | TGI [28]: > 100 µM | TGI [29]: > 100 µM | TGI [30]: > 100 µM | TGI [31]: > 100 µM | TGI [32]: > 100 µM | TGI [33]: > 100 µM | TGI [35]: > 100 µM | TGI [36]: > 100 µM | TGI [37]: > 100 µM | TGI [38]: > 100 µM | TGI [39]: > 100 µM | TGI [40]: > 100 µM | TGI [41]: > 100 µM | TGI [42]: > 100 µM | TGI [43]: > 100 µM | TGI [44]: > 100 µM | TGI [45]: > 100 µM | TGI [47]: > 100 µM | TGI [48]: > 100 µM | TGI [49]: > 100 µM | TGI [50]: > 100 µM | TGI [51]: > 100 µM | TGI [52]: > 100 µM | TGI [53]: > 100 µM | TGI [54]: > 100 µM | TGI [55]: > 100 µM | TGI [56]: > 100 µM | TGI [57]: > 100 µM | TGI [59]: > 100 µM
